This note sets out measurements from patent US20230159583A1, “COMPOUND FOR TREATING GOUT, PREPARATION METHOD THEREFOR, AND USE THEREOF” (Huazhong Pharmaceutical Co., Ltd., priority 2020, published 2023).

Read-outs that look alike come from different tables or passages of the source.

Common to all, as to assay type: in vivo
One series concerns ICR mice. The following applies: p.o. As for the experimental part: The experiment was designed according to the “Technical Guideline for Acute Toxicity Test of Chemical Drugs” issued by the State Food and Drug Administration in March 2005. The doses administered were 4 g/kg, 4.91 g/kg, 6.14 g/kg, 7.68 g/kg, 9.6 g/kg, 12 g/kg, and 15 g/kg (the dose could be adjusted according to the actual test results), 12 ICR mice per dose group. If the administration volume is greater than 0.5 ml, it is better to perform the drug administration in two or more times (Note: according to the national standard GB 15193.3-2014, if multiple drug administrations are required, the time interval should be 4 h to 6 h each time, and the patient should be fasted on the day before drug administration).

Series [1] deals with carrageenan-induced mouse paw swelling. Description: carrageenan-induced mouse paw swelling model. The following applies: for Circumference of the paw after administration: 180 min after onset of inflammation (0.5% carrageenan); for inhibition in vivo at 0.26 mg/kg / inhibition in vivo at 13 mg/kg / inhibition in vivo at 130 mg/kg / change in vivo at 130 mg/kg: Mus musculus, po, 3 h; for inhibition in vivo at 0.26 mg/kg: dosage 0.26 mg/kg; for inhibition in vivo at 0.26 mg/kg / inhibition in vivo at 13 mg/kg / inhibition in vivo at 130 mg/kg: read-out: Swelling inhibition rate; for inhibition in vivo at 13 mg/kg: dosage 13 mg/kg; for change in vivo at 130 mg/kg: read-out: Swelling degree. The method, then:
The anti-inflammatory effects of the compounds prepared in the above Examples were detected using a carrageenan-induced mouse paw swelling model, and the control sample was methylprednisolone:
Carrageenan-induced mouse paw swelling model is a classical acute inflammation model commonly used for evaluating or screening anti-inflammatory effects of drugs. When carrageenan is injected into the paw of mice, a series of reactions similar to human acute inflammation such as local capillary dilatation, increased vascular permeability, exudation and edema can be caused, so the model can be widely used in the evaluation of new drugs.
Reference for experimental method: Yang Huan, Cheng Xiao, Wang Yuehua, Du Guanhua. Effects of esculin on the swelling of toes and inflammation induced by carrageenan in mice [J]. Chinese Journal of New Drugs, 2016(25):2322.
On the day of the experiment, the circumference of right hind paw (cm) of each mouse was measured firstly, and then, after the onset of inflammation, the circumference of right hind paw was measured so that the difference of the circumferences of the paws before and after inflammation was swelling degree, and the swelling inhibition rate of paw (swelling inhibition rate %=(C−T)/C*100%); C=swelling rate of the control group %, and T=swelling rate of the treatment group) was calculated.
(2) Gavage administration was performed once a day for seven consecutive days. The circumference of the right hind paw was marked and measured before the last administration, and the average value of the two measurements was taken as the standard. 30 min after the last administration, 20 μL/mice of 0.5% carrageenan was injected into the right hind ankle of the mice to induce inflammation, and the circumference of paw was measured 180 min after the onset of inflammation. […]

Series [2] has as its system rat paw swelling induced by monosodium urate (MSU). Description: rat paw swelling model induced by monosodium urate (MSU). The settings on record: for inhibition in vivo at 90 mg/kg / inhibition in vivo at 0.36 mg/kg / inhibition in vivo at 1.8 mg/kg / inhibition in vivo at 9 mg/kg / change in vivo at 90 mg/kg: Rattus norvegicus, po; for inhibition in vivo at 90 mg/kg / inhibition in vivo at 0.36 mg/kg / inhibition in vivo at 1.8 mg/kg / inhibition in vivo at 9 mg/kg: 1 h, read-out: Swelling inhibition rate; for inhibition in vivo at 0.36 mg/kg: dosage 0.36 mg/kg; for inhibition in vivo at 1.8 mg/kg: dosage 1.8 mg/kg; for inhibition in vivo at 9 mg/kg: dosage 9 mg/kg; for change in vivo at 90 mg/kg: read-out: Swelling degree; for Mean volume of paw after administration: 1 h after onset of inflammation (50 μL 2% MSU). The text has this:
Gout is a disease unique to human, and gouty arthritis is an inflammatory reaction caused by the deposition of monosodium urate (MSU) in local joint tissues. Since purine metabolism pathways in some mammals such as mice and rabbits are different from those in humans, it is impossible to construct a gouty arthritis model by the method of interfering with purine metabolism disorders, so the most direct method for causing gouty arthritis is to directly inject MSU into the joint cavity of the model animal. The model is only used for simulating local joint inflammation of gout, is suitable for observation of local arthritis symptoms, is a common method for screening anti-inflammatory effects of gout drugs at present, and has the advantages of stability, easy operation and the like. (Reference: Li Na, Hua Long, and Yuan Hui. Research progress of gout animal models [J]. Medical theory and practice, 2016(24).
The anti-gout effect of the compound prepared in the above Example was detected by using a rat paw swelling model induced by monosodium urate (MSU), and the control sample was methylprednisolone.
Experimental method: MSU was used as an inflammatory agent, injected subcutaneously into the hind paws of rats to cause paw swelling, and then the volume of the paws was measured, and the swelling rates and swelling inhibition rates of the treatment group and the control group were compared. On the day of the experiment, the volume of right hind paw (ml) of each rat was measured firstly, and then after the onset of inflammation, the volume of right hind paw was measured so that the difference of volume of paw before and after inflammation was swelling degree, and the swelling inhibition rate of paw (swelling inhibition rate %=(C−T)/C*100%); C=swelling rate of the control group %, and T=swelling rate of the treatment group) was calculated. This method is one of the commonly used methods for screening anti-inflammatory effects of gout drugs, and the model is stable and easy to operate.
(2) One week before the subcutaneous injection of MSU into the feet and soles of the rats, the rats were given different doses of the test drugs, and the drugs were given by gavage once a day, for seven consecutive days. The circumference of the right hind paw was marked and measured before the last administration, and the average value of the two measurements was taken as the standard. 1 h after the last administration, animals in other groups were given 50 μL of 2% MSU in addition to the blank control group, and the paw circumference was measured 1 h after the onset of inflammation. […]

The mark [3] stands for this setting: ICR mice, 130 mg/kg by gavage once a day for seven days, 180 min after onset of inflammation.
[4] abbreviates: ICR mice, 130 mg/kg by gavage once a day for seven days.
[5] abbreviates: mouse, carrageenan-induced paw swelling.
[6] abbreviates: mouse, carrageenan-induced paw swelling, dosage 130 mg/kg.
[7] abbreviates: SD rats, 90 mg/kg by gavage once a day for seven days, 1 h after onset of inflammation.
Setting [8] is: rat, MSU-induced paw swelling, dosage 90 mg/kg.
Setting [9] is: SD rats, 90 mg/kg by gavage once a day for seven days.

Take `CCCCC(=O)O[C@]1(/C(CO)=N/O)CC[C@H]2[C@@H]3C[C@H](C)C4=CC(=NO)C=C[C@]4(C)[C@H]3[C@@H](O)C[C@@]21C` [Example 17, (6S,8S,9S,10R,11S,13S,14S,17R,E)-11-hydroxy-17-((E)-2-hydroxy-1-(hydroxyimino)ethyl)-3-(hydroxyimino)-6,10,13-trimethyl-6,7,8,9,10,11,12,13,14,15,16,17-dodecahydro-3H-cyclopentane[α]phenanthrene-17-yl valerate]: the Mortality with ICR mice (4 g/kg), in the series with ICR mice (4.91 g/kg), with ICR mice (6.14 g/kg), in the series with ICR mice (7.68 g/kg), with ICR mice (9.6 g/kg) and with ICR mice (12 g/kg) was 0/12 in each case. Besides, the Mortality in the series with ICR mice (15 g/kg) is given as 0/12. Further, the results for the Swelling value in series [1] (setting [3]) and in series [2] (setting [7]) were 0.01 cm and 0.14 mL, respectively. Also, in series [1] (setting [4]), the “Circumference of the paw after administration” value (from here on “Circumference of the paw”) is 1.43 cm. Besides, the inhibition in vivo at 0.26 mg/kg in series [1] (setting [5]) stood at 28.2%. Moreover, the inhibition in vivo at 13 mg/kg in series [1] (setting [5]) amounted to 60.3%. In addition, the inhibition in vivo at 130 mg/kg was 98.7% in series [1] (setting [6]) and 96.4% in series [1] (setting [3]). In series [1] (setting [3]), the change in vivo at 130 mg/kg amounted to 0.7%. Besides, the inhibition in vivo at 90 mg/kg in series [2] (setting [7]) turned out to be 96.4%; in series [2] (setting [8]) it was 97%. The inhibition in vivo at 0.36 mg/kg in series [2] (rat, MSU-induced paw swelling) worked out at 10.3%. Also, the inhibition in vivo at 1.8 mg/kg in series [2] (rat, MSU-induced paw swelling) was 56.1%. Moreover, in series [2] (rat, MSU-induced paw swelling), the inhibition in vivo at 9 mg/kg is 78.2%. The change in vivo at 90 mg/kg in series [2] (setting [7]) is 11.9%. In series [2] (setting [9]), the “Mean volume of paw after administration” value amounted to 1.32 mL.
Turning to `C[C@H]1C[C@@H]2[C@H]([C@@H](O)C[C@@]3(C)[C@H]2CC[C@]3(O)C(=O)CO)[C@@]2(C)C=CC(=O)C=C12` [Methylprednisolone, methylprednisolone, reference compound], in series [1] (setting [3]), the Swelling value turned out to be 0.15 cm, the change in vivo at 130 mg/kg stood at 10.1% and the inhibition in vivo at 130 mg/kg was determined as 47.6%. The “Circumference of the paw” value in series [1] (setting [4]) is reported as 1.63 cm. In addition, in series [1] (setting [5]), the inhibition in vivo at 0.26 mg/kg is 12.1% and the inhibition in vivo at 13 mg/kg turned out to be 31.4%. Besides, the inhibition in vivo at 130 mg/kg in series [1] (setting [6]) is 51.2%. In addition, in series [2] (setting [7]), the inhibition in vivo at 90 mg/kg amounted to 53.8%, the change in vivo at 90 mg/kg was found to be 152% and the Swelling value was 1.87 mL. In addition, in series [2] (rat, MSU-induced paw swelling), the inhibition in vivo at 0.36 mg/kg came to 12.3%, the inhibition in vivo at 1.8 mg/kg is 17.6% and the inhibition in vivo at 9 mg/kg was 43.5%. The inhibition in vivo at 90 mg/kg in series [2] (setting [8]) was 55.4%. For the same molecule, the “Mean volume of paw after administration” value in series [2] (setting [9]) came out at 3.1 mL.
As for `CCC(=O)OC/C(=N\O)[C@@]1(O)[C@H](O)C[C@H]2[C@@H]3CCC4=CC(=NO)C=C[C@]4(C)[C@@]3(F)[C@@H](O)C[C@@]21C` [Example 14, (2E)-2-((8S,9R,10S,11S,13S,14S,16R,17R)-9-fluoro-11,16,17-trihydroxy (hydroxyimino)-10,13-dimethyl-6,7,8,9,10,11,12,13,14,15,16,17-dodecahydro-3H-cyclopentane[α]phenanthrene-17-yl)-2-(hydroxyimino)ethyl propionate], the Mortality in the series on ICR mice (4 g/kg) is on record as 0/12; in the series with ICR mice (4.91 g/kg) it was 0/12; in the series on ICR mice (6.14 g/kg), 0/12; in the series on ICR mice (7.68 g/kg), 0/12; with ICR mice (9.6 g/kg) it was 1/12; in the series with ICR mice (12 g/kg), 1/12. Also, the Mortality in the series on ICR mice (15 g/kg) was 3/12. The figures for the Swelling value in series [1] (setting [3]) and in series [2] (setting [7]) were 0.03 cm and 0.56 mL, respectively. Besides, the “Circumference of the paw” value in series [1] (setting [4]) was 1.45 cm. Moreover, the inhibition in vivo at 0.26 mg/kg in series [1] (setting [5]) was determined as 20.3%. Besides, the inhibition in vivo at 13 mg/kg in series [1] (setting [5]) came to 49.2%. Further, the values for the inhibition in vivo at 130 mg/kg in series [1] (setting [6]) and in series [1] (setting [3]) were 92.1% and 89.1%, respectively. Further, the change in vivo at 130 mg/kg in series [1] (setting [3]) was 2.11%. The values for the inhibition in vivo at 90 mg/kg in series [2] (setting [7]) and in series [2] (setting [8]) were 85.6% and 86.3%, respectively. Besides, in series [2] (rat, MSU-induced paw swelling), the inhibition in vivo at 0.36 mg/kg was 5.23%. Also, the inhibition in vivo at 1.8 mg/kg in series [2] (rat, MSU-induced paw swelling) stood at 34.2%. For the same molecule, the inhibition in vivo at 9 mg/kg in series [2] (rat, MSU-induced paw swelling) stood at 65.2%. Besides, the change in vivo at 90 mg/kg in series [2] (setting [7]) amounted to 47.5%. The “Mean volume of paw after administration” value in series [2] (setting [9]) turned out to be 1.74 mL.
Consider `CCON=C1C=C[C@@]2(C)C(=C1)[C@@H](C)C[C@@H]1[C@@H]2[C@@H](O)C[C@@]2(C)[C@H]1CC[C@]2(O)/C(CO)=N/OCC` [Example 9, (6S,8S,9S,10R,11S,13S,14S,17R,E)-17-((E)-1-(ethoxysimino)-2-hydroxyethyl)-11,17-dihydroxy-6,10,13-trimethyl-6,7,8,9,10,11,12,13,14,15,16,17-dodecahydro-3H-cyclopentane[α]phenanthrene-3-ketoO-ethyl oxime], for which the Mortality in the series on ICR mice (4 g/kg), in the series on ICR mice (4.91 g/kg), in the series with ICR mice (6.14 g/kg), with ICR mice (7.68 g/kg), with ICR mice (9.6 g/kg) and with ICR mice (12 g/kg) was 0/12 throughout. Also, the Mortality in the series with ICR mice (15 g/kg) is recorded as 2/12.
